According to patent US12187728B2 (Raze Therapeutics, Inc., priority 2015, dated 2025):

Target: T1, Human MTHFD2 (Homo sapiens, UniProt P13995)
T1 construct: residues 36-350 in Uniport ID P13995; His6 (N); made in house; host or cells: E. coli
T1 sequence (P13995 36-350): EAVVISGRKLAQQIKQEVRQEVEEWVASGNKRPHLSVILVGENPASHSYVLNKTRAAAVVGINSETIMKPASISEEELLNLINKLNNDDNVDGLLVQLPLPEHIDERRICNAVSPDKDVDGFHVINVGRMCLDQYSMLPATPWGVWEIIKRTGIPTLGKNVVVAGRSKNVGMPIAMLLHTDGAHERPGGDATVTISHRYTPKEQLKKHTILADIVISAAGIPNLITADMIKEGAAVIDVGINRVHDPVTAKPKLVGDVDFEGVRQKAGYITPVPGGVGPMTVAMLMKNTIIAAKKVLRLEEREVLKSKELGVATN
Assay: MTHFD2 Activity Assay (dehydrogenase activity, diaphorase/resazurin coupled fluorescence)
Format: biochemical
Conditions: inhibitory activity (IC50 and/or binding constant); 0.2 nM MTHFD2, 11 concentrations
Summary of the method: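 Resorufin fluorescence (ex 525, em 598 nm) reports NADH formed by the dehydrogenase via diaphorase coupling. Enzyme (0.2 nM, residues 36-350, N-His6) sat with compound 15 min before 70 μM CH2-THF and 1 mM NAD+ started a 30 min reaction. IC50s come from 4-parameter fits over 11 concentrations.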

IC50 [nM] | SMILES
1000 to 5000 | Cn1c(N[C@H]2CCC(=O)NC2)nc2c1c(=O)n(Cc1cc3ccccc3[nH]1)c(=O)n2C (single isomer, unassigned) [Example 228, (S)-1-((1H-indol-2-yl)methyl)-3,7-dimethyl-8-(6-oxopiperidin-3-ylamino)-1H-purine-2,6(3H,7H)-dione or (R)-1-((1H-indol-2-yl)methyl)-3,7-dimethyl-8-(6-oxopiperidin-3-ylamino)-1H-purine-2,6(3H,7H)-dione]
10 to 1000 | Cn1c(NCCC(=O)O)nc2c1c(=O)n(Cc1ccc(Cl)c(Cl)c1)c(=O)n2C [Example 37, 3-({1-[(3,4-dichlorophenyl)methyl]-3,7-dimethyl-2,6-dioxo-2,3,6,7-tetrahydro-1H-purin-8-yl}amino)propanoic acid]
1000 to 5000 | Cn1c(Nc2ncn[nH]2)nc2c1c(=O)n(Cc1cc3ccccc3[nH]1)c(=O)n2C [Example 195, 1-((1H-indol-2-yl)methyl)-8-(2H-1,2,4-triazol-3-ylamino)-3,7-dimethyl-1H-purine-2,6(3H,7H)-dione]
10 to 1000 | CC(O)C1CCC(Nc2nc3c(c(=O)n(Cc4ccc(Cl)c(Cl)c4)c(=O)n3C)n2C)C1 (stereo not drawn) [Example 265, 1-(3,4-dichlorobenzyl)-8-(3-(1-hydroxyethyl)cyclopentylamino)-3,7-dimethyl-1H-purine-2,6(3H,7H)-dione]
10 to 1000 | Cn1c(Nc2ccncc2)nc2c1c(=O)n(Cc1cc3c(Cl)ccc(F)c3[nH]1)c(=O)n2C [Example 474, 1-((4-chloro-7-fluoro-1H-indol-2-yl)methyl)-3,7-dimethyl-8-(pyridin-4-ylamino)-1H-purine-2,6(3H,7H)-dione]
10 to 1000 | Cn1c(CCO)nc2c1c(=O)n(Cc1ccc(Cl)c(Cl)c1)c(=O)n2C [Example 158, 1-(3,4-dichlorobenzyl)-8-(2-hydroxyethyl)-3,7-dimethyl-1H-purine-2,6(3H,7H)-dione]
5000 to 10000 | Cn1c(CC(=O)O)nc2c1c(=O)n(Cc1ccc(Cl)c(Cl)c1)c(=O)n2C [Example 101, 2-(1-(3,4-dichlorobenzyl)-3,7-dimethyl-2,6-dioxo-2,3,6,7-tetrahydro-1H-purin-8-yl)acetic acid]
10 to 1000 | Cn1c(NCCCCO)nc2c1c(=O)n(Cc1ccc(Cl)c(Cl)c1)c(=O)n2C [Example 28, 1-[(3,4-dichlorophenyl)methyl]-8-[(4-hydroxybutyl)amino]-3,7-dimethyl-2,3,6,7-tetrahydro-1H-purine-2,6-dione]
5000 to 10000 | Cn1c(N)nc2c1c(=O)n(Cc1cc3ccccc3[nH]1)c(=O)n2C [Example 231, 1-((1H-indol-2-yl)methyl)-8-amino-3,7-dimethyl-1H-purine-2,6(3H,7H)-dione]
1000 to 5000 | Cn1c(N[C@@H]2CC[C@@H](O)C2)nc2c1c(=O)n(Cc1ccc(C(F)(F)F)cc1)c(=O)n2C (single isomer, unassigned) [Example 76, 8-((1R,3R)-3-hydroxycyclopentylamino)-3,7-dimethyl-1-(4-(trifluoromethyl)benzyl)-1H-purine-2,6(3H,7H)-dione or 8-((1S,3S)-3-hydroxycyclopentylamino)-3,7-dimethyl-1-(4-(trifluoromethyl)benzyl)-1H-purine-2,6(3H,7H)-dione]
10 to 1000 | Cn1c(Nc2ccncc2)nc2c1c(=O)n(Cc1cc3cccc(F)c3[nH]1)c(=O)n2C [Example 366, 1-[(7-fluoro-1H-indol-2-yl)methyl]-3,7-dimethyl-8-(4-pyridylamino)purine-2,6-dione]
10 to 1000 | Cn1c(N[C@H]2CCC[C@H]2O)nc2c1c(=O)n(Cc1cc3c(Cl)cccc3[nH]1)c(=O)n2C [Example 347, 1-((4-chloro-1H-indol-2-yl)methyl)-8-((1S,2R)-2-hydroxycyclopentylamino)-3,7-dimethyl-1H-purine-2,6(3H,7H)-dione]
1000 to 5000 | Cn1c(Nc2ccc3c(c2)C(CCO)CC3)nc2c1c(=O)n(Cc1ccc(Cl)c(Cl)c1)c(=O)n2C (stereo not drawn) [Example 323, 1-(3,4-dichlorobenzyl)-8-((3-(2-hydroxyethyl)-2,3-dihydro-1H-inden-5-yl)amino)-3,7-dimethyl-1H-purine-2,6(3H,7H)-dione]
10 to 1000 | Cn1c(N[C@H]2CCC[C@H](C(=O)O)C2)nc2c1c(=O)n(Cc1ccc(Cl)c(Cl)c1)c(=O)n2C (single isomer, unassigned) [Example 186, (1S,3S)-3-(1-(3,4-dichlorobenzyl)-3,7-dimethyl-2,6-dioxo-2,3,6,7-tetrahydro-1H-purin-8-ylamino)cyclohexanecarboxylic or (1R,3R)-3-(1-(3,4-dichlorobenzyl)-3,7-dimethyl-2,6-dioxo-2,3,6,7-tetrahydro-1H-purin-8-ylamino)cyclohexanecarboxylic acid]
5000 to 10000 | C[C@H](O)CNc1nc2c(c(=O)n(Cc3ccc(C(F)(F)F)cc3)c(=O)n2C)n1C [Example 36, 8-{[(2S)-2-hydroxypropyl]amino}-3,7-dimethyl-1-{[4-(trifluoromethyl)phenyl]methyl}-2,3,6,7-tetrahydro-1H-purine-2,6-dione]
10 to 1000 | Cn1c([C@H](N)Cc2ccccn2)nc2c1c(=O)n(Cc1cc3c(Cl)cccc3[nH]1)c(=O)n2C [Example 472, (R)-8-(1-amino-2-(pyridin-2-yl)ethyl)-1-((4-chloro-1H-indol-2-yl)methyl)-3,7-dimethyl-1H-purine-2,6(3H,7H)-dione]
10 to 1000 | CCn1c(=O)n(Cc2cc3c(Cl)cccc3[nH]2)c(=O)c2c1nc(Nc1ccncc1)n2C [Example 361, 1-((4-chloro-1H-indol-2-yl)methyl)-3-ethyl-7-methyl-8-(pyridin-4-ylamino)-1H-purine-2,6(3H,7H)-dione]
1000 to 5000 | Cn1c(NC[C@@H]2CCCO2)nc2c1c(=O)n(Cc1ccc(Cl)c(Cl)c1)c(=O)n2C [Example 104, (S)-1-(3,4-dichlorobenzyl)-3,7-dimethyl-8-((tetrahydrofuran-2-yl)methylamino)-1H-purine-2,6(3H,7H)-dione]
1000 to 5000 | Cn1c(Cn2c(=O)c3c(nc(N)n3C)n(C)c2=O)cc2cc(Cl)ccc21 [Example 237, 8-amino-1-((5-chloro-1-methyl-1H-indol-2-yl)methyl)-3,7-dimethyl-1H-purine-2,6(3H,7H)-dione]
1000 to 5000 | Cn1cnc2c1c(=O)n(Cc1ccc(Cl)c(Cl)c1)c(=O)n2C [Example 152, 1-(3,4-dichlorobenzyl)-3,7-dimethyl-1H-purine-2,6(3H,7H)-dione]
5000 to 10000 | CCn1c(=O)n(Cc2ccc(Cl)c(Cl)c2)c(=O)c2c1ncn2C [Example 250, 1-(3,4-dichlorobenzyl)-3-ethyl-7-methyl-1H-purine-2,6(3H,7H)-dione]
5000 to 10000 | Cn1c(=O)n(Cc2ccc(Cl)c(Cl)c2)c(=O)c2c1ncn2CCO [Example 248, 1-(3,4-dichlorobenzyl)-7-(2-hydroxyethyl)-3-methyl-1H-purine-2,6(3H,7H)-dione]
10 to 1000 | Cn1c(Nc2ccc(CN)nc2)nc2c1c(=O)n(Cc1cc3c(Cl)cccc3[nH]1)c(=O)n2C [Example 429, 8-(6-(aminomethyl)pyridin-3-ylamino)-1-((4-chloro-1H-indol-2-yl)methyl)-3,7-dimethyl-1H-purine-2,6(3H,7H)-dione]
1000 to 5000 | Cc1ccc2[nH]c(Cn3c(=O)c4c(nc(Nc5ncn[nH]5)n4C)n(C)c3=O)cc2c1 [Example 202, 8-(1H-1,2,4-triazol-5-ylamino)-3,7-dimethyl-1-((5-methyl-1H-indol-2-yl)methyl)-1H-purine-2,6(3H,7H)-dione]
10 to 1000 | Cc1ccc2[nH]c(Cn3c(=O)c4c(nc(Nc5cc[nH]c(=O)n5)n4C)n(C)c3=O)cc2c1 [Example 190, 3,7-dimethyl-1-((5-methyl-1H-indol-2-yl)methyl)-8-(2-oxo-1,2-dihydropyrimidin-4-ylamino)-1H-purine-2,6(3H,7H)-dione]
10 to 1000 | Cn1c(Nc2ccc3c(c2)C(CC(=O)O)CC3)nc2c1c(=O)n(Cc1ccc(Cl)c(Cl)c1)c(=O)n2C (stereo not drawn) [Example 314, 2-(6-((1-(3,4-dichlorobenzyl)-3,7-dimethyl-2,6-dioxo-2,3,6,7-tetrahydro-1H-purin-8-yl)amino)-2,3-dihydro-1H-inden-1-yl)acetic acid]
10 to 1000 | Cn1c(N[C@H]2CCC[C@H](O)C2)nc2c1c(=O)n(Cc1ccc(Cl)c(Cl)c1)c(=O)n2C (single isomer, unassigned) [Example 80, 1-(3,4-dichlorobenzyl)-8-((1S,3S)-3-hydroxycyclohexylamino)-3,7-dimethyl-1H-purine-2,6(3H,7H)-dione or 1-(3,4-dichlorobenzyl)-8-((1R,3R)-3-hydroxycyclohexylamino)-3,7-dimethyl-1H-purine-2,6(3H,7H)-dione]
10 to 1000 | Cn1c(Nc2ccnc(CCC(=O)O)c2)nc2c1c(=O)n(Cc1ccc(Cl)c(Cl)c1)c(=O)n2C [Example 277, 3-(4-(1-(3,4-dichlorobenzyl)-3,7-dimethyl-2,6-dioxo-2,3,6,7-tetrahydro-1H-purin-8-ylamino)pyridin-2-yl)propanoic acid]
10 to 1000 | Cn1c(NC2CCOCC2)nc2c1c(=O)n(Cc1ccc(Cl)c(Cl)c1)c(=O)n2C [Example 48, 1-[(3,4-dichlorophenyl)methyl]-3,7-dimethyl-8-[(oxan-4-yl)amino]-2,3,6,7-tetrahydro-1H-purine-2,6-dione]
10 to 1000 | Cn1c(N[C@H](CO)CC2CCCCC2)nc2c1c(=O)n(Cc1ccc(Cl)c(Cl)c1)c(=O)n2C [Example 121, (S)-8-(1-cyclohexyl-3-hydroxypropan-2-ylamino)-1-(3,4-dichlorobenzyl)-3,7-dimethyl-1H-purine-2,6(3H,7H)-dione]
